Data: ChEMBL document CHEMBL5518230, “Identification of a Novel Selective CDK9 Inhibitor for the Treatment of CRC: Design, Synthesis, and Biological Activity Evaluation” (J Med Chem, 2024)
Active and inactive are the calls of the source. No cut-off for these calls is given here.

Key:
[1] = biological target: CYP2C19 (Homo sapiens, UniProt P33261); assay: Inhibition of CYP2C19 in human liver microsomes using benzylnirvanol as […] at 10 uM preincubated for 10 mins followed by NADPH addition measured after 15 mins by LC-MS/MS analysis relative to control; assay type: ADME, Microsome; conditions: probe benzylnirvanol, time 25 min
CYP2C19, sequence (P33261 whole entry): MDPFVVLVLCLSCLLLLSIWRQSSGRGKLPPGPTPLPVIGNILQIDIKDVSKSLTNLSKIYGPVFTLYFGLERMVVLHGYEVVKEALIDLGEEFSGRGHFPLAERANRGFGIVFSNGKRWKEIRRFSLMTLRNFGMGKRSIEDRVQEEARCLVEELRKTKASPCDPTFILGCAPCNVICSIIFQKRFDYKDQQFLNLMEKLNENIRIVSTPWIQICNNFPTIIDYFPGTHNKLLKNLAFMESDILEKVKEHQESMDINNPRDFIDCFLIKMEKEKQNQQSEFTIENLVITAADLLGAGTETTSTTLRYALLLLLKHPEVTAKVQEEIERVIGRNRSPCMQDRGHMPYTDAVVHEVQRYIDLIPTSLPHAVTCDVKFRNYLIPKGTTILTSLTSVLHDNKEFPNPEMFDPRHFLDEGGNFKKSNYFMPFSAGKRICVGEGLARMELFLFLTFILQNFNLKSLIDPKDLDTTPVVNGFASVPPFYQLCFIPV

[2] = biological target: Inhibitor of nuclear factor kappa-B kinase subunit alpha (Homo sapiens) (UniProt O15111); assay: Inhibition of human IKKalpha at 100 nM by kinase profiling assay relative to control
Inhibitor of nuclear factor kappa-B kinase subunit alpha (Homo sapiens), sequence (O15111 whole entry): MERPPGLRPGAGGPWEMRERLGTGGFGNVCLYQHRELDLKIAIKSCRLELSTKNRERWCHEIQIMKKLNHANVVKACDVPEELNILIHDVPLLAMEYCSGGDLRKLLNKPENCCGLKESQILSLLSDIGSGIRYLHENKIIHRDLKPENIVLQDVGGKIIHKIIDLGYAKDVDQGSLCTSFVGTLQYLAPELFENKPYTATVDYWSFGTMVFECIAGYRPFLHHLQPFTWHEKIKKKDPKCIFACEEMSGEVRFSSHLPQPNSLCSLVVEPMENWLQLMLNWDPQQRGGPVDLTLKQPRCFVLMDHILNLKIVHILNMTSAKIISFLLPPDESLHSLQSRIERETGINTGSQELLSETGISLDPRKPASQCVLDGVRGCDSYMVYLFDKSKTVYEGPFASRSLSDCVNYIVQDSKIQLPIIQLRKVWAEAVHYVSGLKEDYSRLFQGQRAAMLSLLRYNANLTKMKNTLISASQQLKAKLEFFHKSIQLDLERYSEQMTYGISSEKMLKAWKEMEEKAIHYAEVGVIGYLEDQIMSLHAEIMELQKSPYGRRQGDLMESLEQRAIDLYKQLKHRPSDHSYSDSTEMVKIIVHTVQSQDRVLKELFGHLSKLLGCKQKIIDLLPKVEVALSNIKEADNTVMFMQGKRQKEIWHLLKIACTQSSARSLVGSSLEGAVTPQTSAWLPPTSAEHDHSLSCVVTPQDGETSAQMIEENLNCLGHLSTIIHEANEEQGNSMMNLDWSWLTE

[3] = MRT (0 to t) in Sprague-Dawley rat at 2 mg/kg,iv administration measured for 0.25 to 24 hrs by LC-MS/MS analysis; assay type: ADME, organism-based; conditions: in vivo, time 0.25-24 hrs
[4] = Toxicity in BALB/c mouse xenografted with human HCT-116 cells assessed as lung morphological change at 50 mg/kg,po administrated once daily for 3 weeks by hematoxylin and eosin staining based microscopic analysis; assay type: organism-based; conditions: in vivo, 504 h
[5] = Half life in human liver microsomes at 100 uM measured upto 60 mins in presence of NADPH by LC-MS/MS analysis; assay type: ADME, Microsome
[6] = test system: HCT-116; assay: Induction of apoptosis in human HCT-116 cells assessed as downregulation of RNA polymerase II phosphorylation at Ser2 residue at 25 to 400 nM incubated for 48 hrs by Western blotting analysis; assay type: functional, cell-based; conditions: dose 25-400 nM
[7] = biological target: Serine/threonine-protein kinase Nek1 (Homo sapiens) (UniProt Q96PY6); assay: Inhibition of human NEK1 at 100 nM by kinase profiling assay relative to control
Serine/threonine-protein kinase Nek1 (Homo sapiens), sequence (Q96PY6 whole entry): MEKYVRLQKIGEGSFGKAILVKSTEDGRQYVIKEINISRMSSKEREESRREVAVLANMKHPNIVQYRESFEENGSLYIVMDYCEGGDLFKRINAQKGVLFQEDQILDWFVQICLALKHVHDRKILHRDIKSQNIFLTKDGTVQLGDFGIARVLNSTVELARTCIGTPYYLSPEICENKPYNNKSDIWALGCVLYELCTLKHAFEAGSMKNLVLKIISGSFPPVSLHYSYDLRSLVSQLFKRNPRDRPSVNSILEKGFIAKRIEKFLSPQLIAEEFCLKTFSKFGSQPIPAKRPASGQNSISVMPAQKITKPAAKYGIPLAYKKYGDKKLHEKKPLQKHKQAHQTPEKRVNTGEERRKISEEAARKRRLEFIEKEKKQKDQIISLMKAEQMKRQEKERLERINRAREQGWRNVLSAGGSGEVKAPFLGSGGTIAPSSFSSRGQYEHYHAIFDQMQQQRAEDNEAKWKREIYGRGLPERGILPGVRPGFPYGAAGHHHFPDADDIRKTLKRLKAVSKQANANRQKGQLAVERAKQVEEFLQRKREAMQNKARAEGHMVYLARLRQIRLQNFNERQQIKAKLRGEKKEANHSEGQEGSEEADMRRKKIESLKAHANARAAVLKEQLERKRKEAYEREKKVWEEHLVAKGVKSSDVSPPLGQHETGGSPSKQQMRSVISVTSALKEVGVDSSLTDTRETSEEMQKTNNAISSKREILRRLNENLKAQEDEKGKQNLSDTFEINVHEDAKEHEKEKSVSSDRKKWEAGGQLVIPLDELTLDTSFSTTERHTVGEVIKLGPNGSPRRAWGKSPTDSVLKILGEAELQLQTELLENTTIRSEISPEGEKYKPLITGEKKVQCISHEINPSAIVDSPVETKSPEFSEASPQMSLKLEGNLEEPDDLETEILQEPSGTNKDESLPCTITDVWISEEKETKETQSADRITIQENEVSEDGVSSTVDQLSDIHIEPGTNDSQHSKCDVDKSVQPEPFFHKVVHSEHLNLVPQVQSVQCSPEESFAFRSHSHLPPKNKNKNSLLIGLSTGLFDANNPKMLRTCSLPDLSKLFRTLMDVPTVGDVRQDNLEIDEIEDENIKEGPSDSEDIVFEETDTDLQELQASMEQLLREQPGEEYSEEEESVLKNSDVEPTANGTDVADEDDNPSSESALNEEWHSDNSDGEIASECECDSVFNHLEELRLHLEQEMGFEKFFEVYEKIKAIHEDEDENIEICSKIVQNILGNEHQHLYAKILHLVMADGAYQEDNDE

[8] = Half life in human plasma measured upto 120 mins by LC-MS/MS analysis; assay type: ADME, cell-free
[9] = test system: HCT-116; assay: Induction of apoptosis in human HCT-116 cells assessed as increase in early apoptotic cells incubated for 48 hrs by Annexin V-FITC/PI staining based flow cytometric analysis; assay type: functional, cell-based
[10] = biological target: Serine/threonine-protein kinase PLK2 (Homo sapiens) (UniProt Q9NYY3); assay: Inhibition of human PLK2 at 100 nM by kinase profiling assay relative to control
[11] = biological target: Interleukin-1 receptor-associated kinase 1 (Homo sapiens) (UniProt P51617); assay: Inhibition of human IRAK1 at 100 nM by kinase profiling assay relative to control
Interleukin-1 receptor-associated kinase 1 (Homo sapiens), sequence (P51617 whole entry, looked up): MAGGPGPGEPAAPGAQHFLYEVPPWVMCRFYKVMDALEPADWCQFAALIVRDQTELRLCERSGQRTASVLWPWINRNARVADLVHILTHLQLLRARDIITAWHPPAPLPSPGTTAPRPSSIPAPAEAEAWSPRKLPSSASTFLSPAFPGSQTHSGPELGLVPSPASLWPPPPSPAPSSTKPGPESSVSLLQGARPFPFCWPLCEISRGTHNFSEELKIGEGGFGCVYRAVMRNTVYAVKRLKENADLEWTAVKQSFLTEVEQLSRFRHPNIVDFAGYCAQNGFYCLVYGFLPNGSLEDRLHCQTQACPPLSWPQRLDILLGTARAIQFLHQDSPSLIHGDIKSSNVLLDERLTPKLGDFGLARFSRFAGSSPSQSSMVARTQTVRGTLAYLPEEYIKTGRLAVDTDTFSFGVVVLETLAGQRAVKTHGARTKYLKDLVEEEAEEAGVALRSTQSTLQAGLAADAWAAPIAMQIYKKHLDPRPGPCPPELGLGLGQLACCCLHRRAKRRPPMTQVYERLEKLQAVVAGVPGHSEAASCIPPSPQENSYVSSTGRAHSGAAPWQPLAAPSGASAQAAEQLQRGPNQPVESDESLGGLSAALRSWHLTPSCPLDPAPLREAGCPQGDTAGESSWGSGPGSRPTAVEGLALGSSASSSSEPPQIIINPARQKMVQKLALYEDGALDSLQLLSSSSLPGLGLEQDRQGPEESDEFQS

[12] = test system: HCT-116; assay: Antitumor activity against human HCT-116 cells xenografted in BALB/c mouse assessed as downregulation of Mcl-1 expression at 50 mg/kg,po administrated once daily for 3 weeks by Western blotting analysis; assay type: functional, organism-based
[13] = Cmax in Sprague-Dawley rat at 10 mg/kg,po administration measured for 0.25 to 24 hrs by LC-MS/MS analysis; assay type: ADME, organism-based; conditions: in vivo, time 0.25-24 hrs
[14] = Selectivity index, ratio of GI50 for growth inhibition of human CCC-HIE-2 cells to GI50 for growth inhibition of human HCT-116 cells
[15] = test system: HCT-116; assay: Antitumor activity against human HCT-116 cells xenografted in BALB/c mouse assessed as downregulation of RNA polymerase II phosphorylation at 25 mg/kg,po administrated once daily for 3 weeks by Western blotting analysis; assay type: functional, organism-based
[16] = Clearance in Sprague-Dawley rat at 2 mg/kg,iv administration measured for 0.25 to 24 hrs by LC-MS/MS analysis; assay type: ADME, organism-based; conditions: in vivo, time 0.25-24 hrs
[17] = Toxicity in BALB/c mouse xenografted with human HCT-116 cells assessed as liver morphological change at 25 mg/kg,po administrated once daily for 3 weeks by hematoxylin and eosin staining based microscopic analysis; assay type: organism-based; conditions: in vivo, 504 h
[18] = Toxicity in BALB/c mouse xenografted with human HCT-116 cells assessed as heart morphological change at 25 mg/kg,po administrated once daily for 3 weeks by hematoxylin and eosin staining based microscopic analysis; assay type: organism-based; conditions: in vivo, 504 h
[19] = MRT (0 to t) in Sprague-Dawley rat at 10 mg/kg,po administration measured for 0.25 to 24 hrs by LC-MS/MS analysis; assay type: ADME, organism-based; conditions: in vivo, time 0.25-24 hrs
[20] = Growth inhibition of human CCC-HIE-2 cells incubated for 48 hrs by CCK-8 assay; assay type: toxicity, cell-based
[21] = Half life in Sprague-Dawley rat at 2 mg/kg,iv administration measured for 0.25 to 24 hrs by LC-MS/MS analysis; assay type: ADME, organism-based; conditions: in vivo, time 0.25-24 hrs
[22] = test system: SW480; assay: Growth inhibition of human SW480 cells incubated for 48 hrs by CCK-8 assay; assay type: functional
[23] = biological target: Cyclin-dependent kinase 5 (Homo sapiens, UniProt Q00535); assay: Inhibition of CDK5 (unknown origin)
Cyclin-dependent kinase 5, sequence (Q00535 whole entry): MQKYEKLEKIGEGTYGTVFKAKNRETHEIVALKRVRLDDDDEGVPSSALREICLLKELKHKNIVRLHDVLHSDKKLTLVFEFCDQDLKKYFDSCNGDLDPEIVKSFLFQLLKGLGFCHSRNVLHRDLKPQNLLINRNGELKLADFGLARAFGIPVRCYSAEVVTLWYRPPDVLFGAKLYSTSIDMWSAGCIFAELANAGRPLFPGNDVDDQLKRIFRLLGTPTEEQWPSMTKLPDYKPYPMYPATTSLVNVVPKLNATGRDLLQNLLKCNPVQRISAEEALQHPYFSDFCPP

[24] = Toxicity in BALB/c mouse xenografted with human HCT-116 cells assessed as spleen morphological change at 25 mg/kg,po administrated once daily for 3 weeks by hematoxylin and eosin staining based microscopic analysis; assay type: organism-based; conditions: in vivo, 504 h
[25] = biological target: Cyclin-dependent kinase 9 (Homo sapiens, UniProt P50750); assay: Inhibition of human CDK9 at 100 nM by kinase profiling assay relative to control
Cyclin-dependent kinase 9, sequence (P50750 whole entry): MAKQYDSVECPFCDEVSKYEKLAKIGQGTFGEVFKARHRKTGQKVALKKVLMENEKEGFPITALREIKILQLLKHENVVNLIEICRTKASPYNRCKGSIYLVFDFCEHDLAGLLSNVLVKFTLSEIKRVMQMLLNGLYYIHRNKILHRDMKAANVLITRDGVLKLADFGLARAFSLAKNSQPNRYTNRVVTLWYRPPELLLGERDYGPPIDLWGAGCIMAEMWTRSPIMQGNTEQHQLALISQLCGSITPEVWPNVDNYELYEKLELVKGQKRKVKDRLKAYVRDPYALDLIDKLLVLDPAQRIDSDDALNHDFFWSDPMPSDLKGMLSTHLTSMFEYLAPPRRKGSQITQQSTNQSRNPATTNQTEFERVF

[26] = biological target: Glycogen synthase kinase-3 beta (Homo sapiens) (UniProt P49841); assay: Inhibition of human GSK3beta at 100 nM by kinase profiling assay relative to control
Glycogen synthase kinase-3 beta (Homo sapiens), sequence (P49841 whole entry, looked up): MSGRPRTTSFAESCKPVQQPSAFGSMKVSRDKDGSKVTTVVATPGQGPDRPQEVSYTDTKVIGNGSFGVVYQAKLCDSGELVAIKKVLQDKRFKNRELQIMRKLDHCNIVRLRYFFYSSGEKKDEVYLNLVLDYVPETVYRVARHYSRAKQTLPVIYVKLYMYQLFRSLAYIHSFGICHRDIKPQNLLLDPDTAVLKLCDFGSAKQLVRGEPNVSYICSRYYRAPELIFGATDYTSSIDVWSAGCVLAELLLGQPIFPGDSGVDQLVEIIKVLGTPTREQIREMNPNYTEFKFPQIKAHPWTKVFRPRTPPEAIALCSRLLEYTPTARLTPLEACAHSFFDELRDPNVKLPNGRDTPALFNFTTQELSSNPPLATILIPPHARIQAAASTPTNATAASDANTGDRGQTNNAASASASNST

[27] = biological target: Mitogen-activated protein kinase kinase kinase kinase 4 (Homo sapiens) (UniProt O95819); assay: Inhibition of human HGK at 100 nM by kinase profiling assay relative to control
[28] = biological target: Cyclin-dependent kinase 2 (Homo sapiens, UniProt P24941); assay: Inhibition of CDK2 (unknown origin)
[29] = Toxicity in BALB/c mouse xenografted with human HCT-116 cells assessed as heart morphological change at 50 mg/kg,po administrated once daily for 3 weeks by hematoxylin and eosin staining based microscopic analysis; assay type: organism-based; conditions: in vivo, 504 h
[30] = AUC (0 to infinity) in Sprague-Dawley rat at 2 mg/kg,iv administration measured for 0.25 to 24 hrs by LC-MS/MS analysis; assay type: ADME, organism-based; conditions: in vivo, time 0.25-24 hrs
[31] = Intrinsic microsomal clearance in human liver microsomes at 100 uM measured upto 60 mins in presence of NADPH by LC-MS/MS analysis; assay type: ADME, Microsome; conditions: read-out: CLH
[32] = Tmax in Sprague-Dawley rat at 2 mg/kg,iv administration measured for 0.25 to 24 hrs by LC-MS/MS analysis; assay type: ADME, organism-based; conditions: in vivo, time 0.25-24 hrs
[33] = test system: HCT-116; assay: Induction of apoptosis in human HCT-116 cells assessed as downregulation of c-Myc mRNA expression at 25 to 400 nM incubated for 48 hrs by qRT-PCR analysis; assay type: functional, cell-based; conditions: dose 25-400 nM
[34] = biological target: CYP2D6 (Homo sapiens, UniProt P10635); assay: Inhibition of CYP2D6 in human liver microsomes using quinidine as […] at 10 uM preincubated for 10 mins followed by NADPH addition measured after 15 mins by LC-MS/MS analysis relative to control; assay type: ADME, Microsome; conditions: time 25 min
CYP2D6, sequence (P10635 whole entry): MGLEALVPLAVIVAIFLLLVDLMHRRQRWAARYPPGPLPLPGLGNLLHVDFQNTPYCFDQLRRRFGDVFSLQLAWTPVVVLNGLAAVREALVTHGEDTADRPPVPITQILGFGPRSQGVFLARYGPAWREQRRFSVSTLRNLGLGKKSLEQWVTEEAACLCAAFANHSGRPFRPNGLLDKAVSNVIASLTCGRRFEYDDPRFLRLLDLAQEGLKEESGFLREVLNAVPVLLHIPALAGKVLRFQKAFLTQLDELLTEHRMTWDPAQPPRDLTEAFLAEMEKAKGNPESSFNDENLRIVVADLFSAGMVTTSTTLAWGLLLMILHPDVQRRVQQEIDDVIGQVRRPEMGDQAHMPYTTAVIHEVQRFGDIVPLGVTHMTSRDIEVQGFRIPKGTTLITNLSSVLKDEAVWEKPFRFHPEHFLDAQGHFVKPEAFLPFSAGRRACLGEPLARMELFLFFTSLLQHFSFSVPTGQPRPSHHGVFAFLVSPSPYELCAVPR

[35] = test system: HCT-116; assay: Induction of apoptosis in human HCT-116 cells assessed as increase in red fluorescence emission by TUNEL staining fluorescence microscopic analysis; assay type: functional, cell-based
[36] = Toxicity in BALB/c mouse xenografted with human HCT-116 cells assessed as kidney morphological change at 50 mg/kg,po administrated once daily for 3 weeks by hematoxylin and eosin staining based microscopic analysis; assay type: organism-based; conditions: in vivo, 504 h
[37] = Toxicity in BALB/c mouse xenografted with human HCT-116 cells assessed as kidney morphological change at 25 mg/kg,po administrated once daily for 3 weeks by hematoxylin and eosin staining based microscopic analysis; assay type: organism-based; conditions: in vivo, 504 h

inhibition at 0.25 h, 10 µM [1]: 24.5% | inhibition [2]: < 50% | MRT last [3]: 1.48 h | half-life at 100 µM [5]: 0.42 h | inhibition [7]: < 50% | half-life [8]: > 4.82 h | inhibition [10]: < 50% | inhibition [11]: < 50% | Cmax [13]: 39 ng/mL | clearance [16]: 89.8 mL/min/kg | MRT last [19]: 4.62 h | half-life [21]: 1.7 h | GI50 [22]: 5.09 µM | IC50 [23]: > 0.5 µM | inhibition [25]: > 90% | inhibition [26]: < 50% | inhibition [27]: < 50% | IC50 [28]: > 0.5 µM | AUC(0-inf) [30]: 373 ng·h/mL | microsomal CLint at 100 µM [31]: 55.1 µL/min/mg | Tmax [32]: 4.98 min | inhibition at 0.25 h, 10 µM [34]: 9.9%
SMILES: CC(C)n1nnc2ccc(-c3ccnc(Nc4cc(C(=O)N5CCCN(C)CC5)ccn4)c3)cc21
Activity [4]: Non-Toxic | Activity [6]: Active | Activity [9]: Dose-Dependent Effect | Activity [12]: Active | RatioGI50 [14]: 173.46 | Activity [15]: Active | Activity [17]: Non-Toxic | Activity [18]: Non-Toxic | GI50 at 48 h [20]: 9.51 µM | Activity [24]: Non-Toxic | Activity [29]: Non-Toxic | Activity [33]: Active | Activity [35]: Dose-Dependent Effect | Activity [36]: Non-Toxic | Activity [37]: Non-Toxic
